From article PMC10901292 (European journal of medicinal chemistry, 2024) come the findings set out here.

In series [1] the target is T1, EZH2 (Homo sapiens, UniProt Q15910). Briefly: Western blot of EZH2 protein level in EOL-1 cells. The class given is cell-based. Conditions: for EZH2 degradation (EZH2 protein level): 24 h treatment.
Target sequence in this assay (Q15910 whole entry): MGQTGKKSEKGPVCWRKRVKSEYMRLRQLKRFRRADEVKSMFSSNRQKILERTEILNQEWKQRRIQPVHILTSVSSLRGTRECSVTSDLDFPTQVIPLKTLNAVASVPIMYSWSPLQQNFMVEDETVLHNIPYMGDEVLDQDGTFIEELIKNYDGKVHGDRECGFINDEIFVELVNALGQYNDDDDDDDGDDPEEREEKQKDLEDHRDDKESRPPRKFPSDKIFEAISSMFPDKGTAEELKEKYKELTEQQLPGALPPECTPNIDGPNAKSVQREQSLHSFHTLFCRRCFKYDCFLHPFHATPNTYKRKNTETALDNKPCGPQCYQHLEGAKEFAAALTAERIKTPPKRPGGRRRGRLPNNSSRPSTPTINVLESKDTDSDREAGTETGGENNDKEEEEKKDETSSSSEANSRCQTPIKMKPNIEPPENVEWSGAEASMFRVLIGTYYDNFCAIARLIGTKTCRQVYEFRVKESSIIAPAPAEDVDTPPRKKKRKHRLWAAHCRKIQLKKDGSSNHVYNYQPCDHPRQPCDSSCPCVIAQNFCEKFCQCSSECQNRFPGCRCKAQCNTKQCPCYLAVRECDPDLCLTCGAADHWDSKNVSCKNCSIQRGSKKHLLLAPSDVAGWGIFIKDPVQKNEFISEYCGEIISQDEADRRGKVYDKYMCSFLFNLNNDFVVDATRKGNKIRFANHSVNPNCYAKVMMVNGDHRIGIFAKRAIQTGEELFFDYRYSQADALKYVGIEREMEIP
Target sequence in this assay (O75530 2-441 partner limits assumed): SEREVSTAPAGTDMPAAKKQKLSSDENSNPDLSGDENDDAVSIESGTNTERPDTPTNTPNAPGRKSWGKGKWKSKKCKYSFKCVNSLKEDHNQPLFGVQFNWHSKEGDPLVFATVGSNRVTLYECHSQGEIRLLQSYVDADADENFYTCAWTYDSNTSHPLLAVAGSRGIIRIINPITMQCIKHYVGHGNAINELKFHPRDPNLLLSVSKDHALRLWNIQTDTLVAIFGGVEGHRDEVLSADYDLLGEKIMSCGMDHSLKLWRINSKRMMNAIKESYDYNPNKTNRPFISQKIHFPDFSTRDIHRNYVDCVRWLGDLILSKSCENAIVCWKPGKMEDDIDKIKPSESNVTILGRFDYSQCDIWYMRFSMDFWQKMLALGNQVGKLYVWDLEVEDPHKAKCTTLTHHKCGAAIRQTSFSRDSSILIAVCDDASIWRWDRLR
Target sequence in this assay (Q15022 whole entry partner): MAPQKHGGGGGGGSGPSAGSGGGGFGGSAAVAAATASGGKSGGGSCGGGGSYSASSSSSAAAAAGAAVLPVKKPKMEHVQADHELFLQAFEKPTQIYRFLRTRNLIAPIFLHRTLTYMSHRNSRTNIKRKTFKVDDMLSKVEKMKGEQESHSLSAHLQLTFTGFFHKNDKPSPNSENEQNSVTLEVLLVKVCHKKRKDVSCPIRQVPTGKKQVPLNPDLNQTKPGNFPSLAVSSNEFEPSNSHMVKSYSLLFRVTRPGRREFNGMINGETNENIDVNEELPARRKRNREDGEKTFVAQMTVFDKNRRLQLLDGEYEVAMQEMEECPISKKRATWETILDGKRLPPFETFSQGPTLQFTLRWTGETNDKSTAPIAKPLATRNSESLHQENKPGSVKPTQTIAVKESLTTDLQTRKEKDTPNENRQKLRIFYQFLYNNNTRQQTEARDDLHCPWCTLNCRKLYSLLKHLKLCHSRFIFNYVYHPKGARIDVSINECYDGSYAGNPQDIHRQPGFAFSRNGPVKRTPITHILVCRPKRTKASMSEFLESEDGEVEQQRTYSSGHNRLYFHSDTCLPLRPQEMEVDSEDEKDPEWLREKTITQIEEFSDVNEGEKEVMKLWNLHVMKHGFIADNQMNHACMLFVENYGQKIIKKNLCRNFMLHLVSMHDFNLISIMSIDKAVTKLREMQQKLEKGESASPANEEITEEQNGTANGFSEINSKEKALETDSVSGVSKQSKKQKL
A further series deals with BT549 cells. Briefly: Cell viability WST-8. It counts as cell-based.
A further series relates to MDA-MB-468 cells. Briefly: Cell viability WST-8. The class given is cell-based. For orientation: Tetrazolium dyes change colour on reduction, which living cells bring about.
Series [2] has as its target T1, EZH2. In words: Western blot of EZH2 protein level in MV4. Conditions: 11 cells, 24 h treatment, all tested concentrations (Fig. 8A, 8C). It counts as cell-based. A general note: In western blotting, separated proteins are transferred to a membrane and probed.
Target sequence in this assay (Q15910 whole entry): as the sequence (Q15910 whole entry) above
Target sequence in this assay (O75530 2-441 partner limits assumed): as the sequence (O75530 2-441 partner limits assumed) above
Target sequence in this assay (Q15022 whole entry partner): as the sequence (Q15022 whole entry partner) above
A further series has as its system BT549 in vitro spheroids. In words: Bio-Assembler 3D in vitro spheroid TNBC model. The class given is cell-based. Conditions: 5 d treatment.
A short description of series [3]: Tolerability observed in the mouse PK study. Conditions: mice, single IP injection 50 mg/kg.
For series [4], the system named is panel of 20 protein methyltransferases. Briefly: Radioactive methyltransferase selectivity panel. The class given is biochemical. Conditions: 10 μM, two replicates.
Another series deals with K562 cells. Briefly: Cell viability assay, K562. Particulars: K562 cells (insensitive to EZH2 KO), Fig. S4. The class given is cell-based.
The target in series [5] is T1, EZH2. In words: EZH2 methyltransferase inhibition assay. It counts as biochemical. Conditions: Fig. S2A.
In a further series the test system is H3K27me3. Briefly: Western blot of H3K27me3 mark in EOL-1 cells. It counts as cell-based. Particulars: 24 h treatment (Fig. 4A).
The test system of another series is EOL-1 cells. In words: Cell viability WST-8. The class given is cell-based.
The target in series [6] is T2, EZH1 (Homo sapiens, UniProt Q92800). In words: Western blot of EZH1 degradation. Conditions: Fig. S3. It counts as cell-based.
Target sequence in this assay (Q92800 whole entry): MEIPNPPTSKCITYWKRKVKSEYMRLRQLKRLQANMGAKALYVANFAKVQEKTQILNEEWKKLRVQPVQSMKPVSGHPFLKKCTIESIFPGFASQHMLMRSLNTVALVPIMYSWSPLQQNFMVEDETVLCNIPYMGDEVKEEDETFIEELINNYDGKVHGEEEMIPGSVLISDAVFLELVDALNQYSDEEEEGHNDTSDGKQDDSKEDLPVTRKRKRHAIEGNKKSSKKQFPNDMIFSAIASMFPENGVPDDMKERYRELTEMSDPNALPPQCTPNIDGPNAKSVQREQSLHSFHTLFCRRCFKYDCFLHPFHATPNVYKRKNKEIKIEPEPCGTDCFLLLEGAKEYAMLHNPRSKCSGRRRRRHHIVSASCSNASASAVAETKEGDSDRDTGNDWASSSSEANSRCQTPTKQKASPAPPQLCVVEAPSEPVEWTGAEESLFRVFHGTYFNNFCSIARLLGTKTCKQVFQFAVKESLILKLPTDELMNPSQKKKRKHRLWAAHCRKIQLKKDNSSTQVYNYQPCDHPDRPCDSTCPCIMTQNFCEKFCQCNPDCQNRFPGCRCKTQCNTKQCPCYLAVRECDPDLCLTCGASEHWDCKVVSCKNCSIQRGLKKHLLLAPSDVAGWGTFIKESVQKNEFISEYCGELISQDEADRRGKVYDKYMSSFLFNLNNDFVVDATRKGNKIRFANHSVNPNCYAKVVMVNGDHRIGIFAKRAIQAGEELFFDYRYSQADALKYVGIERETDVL
Target sequence in this assay (O75530 2-441 partner limits assumed): as the sequence (O75530 2-441 partner limits assumed) above
Target sequence in this assay (Q15022 whole entry partner): as the sequence (Q15022 whole entry partner) above
Series [7] has as its target T1, EZH2. In words: Western blot of EZH2 protein level in BT549 cells. It counts as cell-based. Conditions: 48 h treatment.
Target sequence in this assay (Q15910 whole entry): as the sequence (Q15910 whole entry) above
Target sequence in this assay (O75530 2-441 partner limits assumed): as the sequence (O75530 2-441 partner limits assumed) above
Target sequence in this assay (Q15022 whole entry partner): as the sequence (Q15022 whole entry partner) above
Series [8] deals with T2, EZH1. Briefly: EZH1 methyltransferase inhibition assay. The class given is biochemical. Conditions: Fig. S2B.
Series [9] in a line: Mouse pharmacokinetic study.
For a further series, the system named is EED. In words: Western blot of EED in EOL-1 cells. The class given is cell-based. Conditions: 24 h treatment (Fig. 4B).
For series [10], the target named is T1, EZH2. Briefly: Western blot of EZH2 protein level in RS4. The class given is cell-based. Conditions: 11 cells, 24 h treatment, 0.1 and 0.3 μM.
Target sequence in this assay (Q15910 whole entry): as the sequence (Q15910 whole entry) above
Target sequence in this assay (O75530 2-441 partner limits assumed): as the sequence (O75530 2-441 partner limits assumed) above
Target sequence in this assay (Q15022 whole entry partner): as the sequence (Q15022 whole entry partner) above
The target of series [11] is T1, EZH2. In words: Western blot of EZH2 protein level in MDA-MB-468 cells. It counts as cell-based. Conditions: 48 h treatment.
Target sequence in this assay (Q15910 whole entry): as the sequence (Q15910 whole entry) above
Target sequence in this assay (O75530 2-441 partner limits assumed): as the sequence (O75530 2-441 partner limits assumed) above
Target sequence in this assay (Q15022 whole entry partner): as the sequence (Q15022 whole entry partner) above
Another series has as its system MV4; 11 cells. In words: Cell viability WST-8. The class given is cell-based.

Regarding `CCN(c1cc(-c2ccc(CN3CCN(CCC(=O)NCCCCCCCC(=O)N[C@H](C(=O)N4C[C@H](O)C[C@H]4C(=O)NCc4ccc(-c5scnc5C)cc4)C(C)(C)C)CC3)cc2)cc(C(=O)NCc2c(C)cc(C)[nH]c2=O)c1C)C1CCOCC1` [Compound 5, (2S,4R)-1-((S)-2-(8-(3-(4-((3’-(((4,6-dimethyl-2-oxo-1,2-dihydropyridin-3-yl)methyl)carbamoyl)-5’-(ethyl(tetrahydro-2H-pyran-4-yl)amino)-4′-methyl-[1,1′-biphenyl]-4-yl)methyl)piperazin-1-yl)propanamido)octanamido)-3,3-dimethylbutanoyl)-4-hydroxy-N-(4-(4-methylthiazol-5-yl)benzyl)pyrrolidine-2-carboxamide], on EZH2 [1] (SAR study (Fig. 3)), the “EZH2 degradation (EZH2 protein level)” value is recorded as “partial degradation”.

Consider `CCN(c1cc(-c2ccc(CN3CCN(CCC(=O)NCCCCCCCCC(=O)N[C@H](C(=O)N4C[C@H](O)C[C@H]4C(=O)NCc4ccc(-c5scnc5C)cc4)C(C)(C)C)CC3)cc2)cc(C(=O)NCc2c(C)cc(C)[nH]c2=O)c1C)C1CCOCC1` [Compound 6, (2S,4R)-1-((S)-2-(9-(3-(4-((3’-(((4,6-dimethyl-2-oxo-1,2-dihydropyridin-3-yl)methyl)carbamoyl)-5’-(ethyl(tetrahydro-2H-pyran-4-yl)amino)-4′-methyl-[1,1′-biphenyl]-4-yl)methyl)piperazin-1-yl)propanamido)nonanamido)-3,3-dimethylbutanoyl)-4-hydroxy-N-(4-(4-methylthiazol-5-yl)benzyl)pyrrolidine-2-carboxamide], for which the “EZH2 degradation (EZH2 protein level)” value on EZH2 [1] (SAR study (Fig. 3)) is on record as “partial degradation”.

In the case of `CCN(c1cc(-c2ccc(CN3CCN(CCC(=O)NCCCCCCCCCC(=O)N[C@H](C(=O)N4C[C@H](O)C[C@H]4C(=O)NCc4ccc(-c5scnc5C)cc4)C(C)(C)C)CC3)cc2)cc(C(=O)NCc2c(C)cc(C)[nH]c2=O)c1C)C1CCOCC1` [Compound 7, (2S,4R)-1-((S)-2-(10-(3-(4-((3’-(((4,6-dimethyl-2-oxo-1,2-dihydropyridin-3-yl)methyl)carbamoyl)-5’-(ethyl(tetrahydro-2H-pyran-4-yl)amino)-4′-methyl-[1,1′-biphenyl]-4-yl)methyl)piperazin-1-yl)propanamido)decanamido)-3,3-dimethylbutanoyl)-4-hydroxy-N-(4-(4-methylthiazol-5-yl)benzyl)pyrrolidine-2-carboxamide], the “EZH2 degradation (EZH2 protein level)” value is “reduced the EZH2 protein level completely” at EZH2 [1] (0.1 μM (Fig. 3)) and “less profoundly” at EZH2 [1] (1 μM (Fig. 3)).

Regarding `CCN(c1cc(-c2ccc(CN3CCOCC3)cc2)cc(C(=O)NCc2c(C)cc(C)[nH]c2=O)c1C)C1CCOCC1` [EPZ-6438, Tazemetostat], the “effect on cell growth” value in the series with BT549 cells and in the series with MDA-MB-468 cells was “no effect” throughout.

In the case of `CCN(c1cc(-c2ccc(CN3CCN(CCC(=O)NCCCCCCCCCCC(=O)N[C@H](C(=O)N4C[C@H](O)C[C@H]4C(=O)NCc4ccc(-c5scnc5C)cc4)C(C)(C)C)CC3)cc2)cc(C(=O)NCc2c(C)cc(C)[nH]c2=O)c1C)C1CCOCC1` [MS8847, (2S,4R)-1-((S)-2-(11-(3-(4-((3’-(((4,6-dimethyl-2-oxo-1,2-dihydropyridin-3-yl)methyl)carbamoyl)-5’-(ethyl(tetrahydro-2H-pyran-4-yl)amino)-4′-methyl-[1,1′-biphenyl]-4-yl)methyl)piperazin-1-yl)propanamido)undecanamido)-3,3-dimethylbutanoyl)-4-hydroxy-N-(4-(4-methylthiazol-5-yl)benzyl)pyrrolidine-2-carboxamide], the EZH2 degradation entry on EZH2 [2] is given as “near-complete degradation”; on EZH2 [7], “potent EZH2 degradation”; on EZH2 [1] (24 h, 0.1 and 0.3 μM, comparison of five degraders (Fig. 7A)), “complete degradation”; on EZH2 [1] (24 h treatment at the indicated concentration (Fig. 4A, Fig. 6A)), “effectively induced EZH2 degradation”; on EZH2 [10], “induced EZH2 degradation”; on EZH2 [11], “potent EZH2 degradation”. In the series on BT549 in vitro spheroids, the “cell viability of BT549 cells in spheroids (Cell Titer Glo 3D)” value was “significantly reduced”. For the same molecule, in the series with BT549 in vitro spheroids (compared to DMSO-treated control tumors), the “size of BT549 in vitro spheroids” value is “significantly reduced”. The “clinical signs of toxicity” value in series [3] is reported as “did not exhibit obvious clinical signs of toxicity”. In [4], the “inhibition of any of the 20 methyltransferases” value is given as no more than 50%. Also, the cell growth inhibition result with K562 cells is given as “did not inhibit cell growth”. In addition, on EZH2 [5], the “inhibition of the enzymatic activity of EZH2” value is reported as “inhibits”. In the series with H3K27me3, the “reduction of the H3K27me3 mark” value is listed as “reduced the H3K27me3 mark”. Further, the “fold more potent than MS8815 (anti-proliferative IC50)” value in the series on EOL-1 cells is on record as “more than 3 fold”. Also, the EZH1 degradation entry at EZH1 [6] is reported as “does not degrade”. At EZH1 [8], the “inhibition of the enzymatic activity of EZH1” value is on record as “inhibits”. Moreover, the “time at which EZH2 degradation started” value at EZH2 [1] (300 nM) is on record as 8 h. For the same molecule, the “time to maximum EZH2 degradation” value at EZH2 [1] (300 nM) is no more than 24 h. Also, the “EZH2 degradation (EZH2 protein level)” value on EZH2 [1] (0.1 μM (Fig. 3)) and at EZH2 [1] (1 μM (Fig. 3)) was “complete EZH2 degradation” throughout. Moreover, the “time at which Cmax was observed” value in series [9] (male Swiss albino mice, single IP injection 50 mg/kg, HCl form) is listed as 4 h. In addition, the concentration at 9 h in series [9] (male, Swiss Albino, mouse, plasma, ip, 50 mg/kg) is greater than 1000 nM. For the same molecule, in the series with EED, the EED degradation result is “potently degraded”. The “fold more potent than U3i (cell growth IC50)” value in the series with MV4; 11 cells is given as “over 2 fold”.

Turning to `CCN(c1cc(-c2ccc(CN3CCN(CCC(=O)NCCCCCCCCCCC(=O)N[C@H](C(=O)N4C[C@H](O)C[C@H]4C(=O)NCc4ccc(-c5scnc5C)cc4)C(C)(C)C)CC3)cc2)cc(C(=O)N(C)Cc2c(C)cc(C)n(C)c2=O)c1C)C1CCOCC1` [MS8847N1, (2S,4R)-1-((S)-2-(11-(3-(4-((3’-(ethyl(tetrahydro-2H-pyran-4-yl)amino)-4′-methyl-5’-(methyl((1,4,6-trimethyl-2-oxo-1,2-dihydropyridin-3-yl)methyl)carbamoyl)-[1,1′-biphenyl]-4-yl)methyl)piperazin-1-yl)propanamido)undecanamido)-3,3-dimethylbutanoyl)-4-hydroxy-N-(4-(4-methylthiazol-5-yl)benzyl)pyrrolidine-2-carboxamide], the EZH2 degradation result at EZH2 [2] is “did not induce EZH2 degradation”.

Regarding “(2R,4S)-1-((S)-2-(11-(3-(4-((3’-(((4,6-dimethyl-2-oxo-1,2-dihydropyridin-3-yl)methyl)carbamoyl)-5’-(ethyl(tetrahydro-2H-pyran-4-yl)amino)-4′-methyl-[1,1′-biphenyl]-4-yl)methyl)piperazin-1-yl)propanamido)undecanamido)-3,3-dimethylbutanoyl)-4-hydroxy-N-(4-(4-methylthiazol-5-yl)benzyl)pyrrolidine-2-carboxamide [MS8847N2]”, the EZH2 degradation result at EZH2 [2] is “did not induce EZH2 degradation”.
